According to patent US6603023B2 (priority 1996, dated 2003):
Like-named read-outs stand apart in the source and are kept apart here. Marks after values point to notes of the source that are not given here.

Legend:
[1] = system: human ovarian adenocarcinoma SK-OV-3
[2] = system: CCRF-CEM/Taxol®; test: CCRF-CEM/Taxol xenograft, i.v. 6 h infusion; assay type: in vivo, nude mice
Source text: Treatment on days 6, 8, 10, 12 and 14.
Treatment on days 19, 21, 23, 25, 27, 39, 41, 43, 45 and 47.

[3] = system: MDR human mammary adenocarcinoma MCF-7/Adr xenograft; test: in vivo; details: for toxicity: dEpoB 35 mg/kg Q2Dx5 i.p.
Method: DMSO was used as a vehicle for epothilones. Each mouse received ≦40 μL DMSO in all experiments.
Athymic nude mice (nu/nu) were used for MX-1 and MCF-7/Adr human mammary carcinoma xenografts. Mice were obtained from Taconic Laboratory Animals and Service (Germantown, N.Y.: outbred, Swiss background).

[4] = system: PC-3 Human Prostate Carcinoma; test: PC-3 xenograft; assay type: in vivo, nude mice; details: for Therapeutic effect Rank Order: PC-3; for Average Body Weight, Day 5: initial weight
[5] = system: human ovarian UL3-C tumor; test: UL3-C ovarian tumor xenograft
[6] = system: Human Lymphoblastic Leukemia CCRF-CEM; test: CCRF-CEM xenograft in nude mice, i.v. 6 h infusion; assay type: in vivo
[7] = Hematology and blood chemistry toxicity in MX-1 bearing mice; details: day 30; dEpoB 25 mg/kg i.p. day 7-15 then 35 mg/kg day 17-25; Taxol 5 then 6 mg/kg; MX-1 bearing nude mice
[8] = 35 mg/kg i.p. Q2Dx5 from day 9, day 15
[9] = 35 mg/kg i.p. Q2Dx5 from day 9, day 17
[10] = 35 mg/kg i.p. Q2Dx5 from day 9, day 19
[11] = dEpo B 15 mg/kg i.v. Q2Dx5 from day 9
[12] = dEpo B 15 mg/kg i.v. Q2Dx5 from day 9, day 15
[13] = dEpo B 15 mg/kg i.v. Q2Dx5 from day 9, day 17
[14] = dEpo B 15 mg/kg i.v. Q2Dx5 from day 9, day 19
[15] = CCRF/Taxol Leukemia, dEpoB 30 mg/kg Q2D x 6, Taxol 15 mg/kg Q2D x 6
[16] = 35 mg/kg i.p. Q2Dx5 from day 8, day 11
[17] = 35 mg/kg i.p. Q2Dx5 from day 8, day 13
[18] = 35 mg/kg i.p. Q2Dx5 from day 8, day 15
[19] = 35 mg/kg i.p. Q2Dx5 from day 8, day 17
[20] = 6 hr i.v. infusion: dEpoB 40, Taxol 24 mg/kg
[21] = PC-3 Prostate, dEpoB 40 mg/kg Q2D x 3, Taxol 15 mg/kg Q2D x 3
[22] = dEpoB 30 mg/kg 18 hr i.v. infusion, Taxol 16 mg/kg 6 hr infusion, VBL 2 and VP-16 25 mg/kg i.v. inj
[23] = dEpoB 50 mg/kg, 6 hr i.v. infusion
[24] = UL3-C Ovary, dEpoB 30 mg/kg Q2D x 5, Taxol 15 mg/kg Q2D x 5
[25] = dEpoB 30, Taxol 20 mg/kg, i.v. infusions on day 19,21,23,25,27
[26] = CCRF/CEM Leukemia, dEpoB 30 mg/kg Q2D x 5, Taxol 15 mg/kg Q2D x 5

C/C1=C/C[C@@H](/C(C)=C/c2csc(C)n2)OC(=O)C[C@H](O)C(C)(C)C(=O)[C@H](C)[C@@H](O)[C@@H](C)CCC1 [Desoxyepothilone B, desoxyepothilone B]
Toxicity Death ([1]; 35 mg/kg i.p. Q2Dx5 from day 9): 0/6
Tumor Disapp. ([1]; 35 mg/kg i.p. Q2Dx5 from day 9): 0/6
Average Body Weight Change ([1]; 35 mg/kg i.p. Q2Dx5 from day 9, day 13): -1.7 g
Average Body Weight Change [1, 8]: -2.1 g
Average Tumor Size (T/C) [1, 8]: 0.57
Average Body Weight Change [1, 9]: -2.1 g
Average Tumor Size (T/C) [1, 9]: 0.33
Average Body Weight Change [1, 10]: -2.4 g
Average Tumor Size (T/C) [1, 10]: 0.35
Average Tumor Size (T/C) ([1]; 35 mg/kg i.p. Q2Dx5 from day 9, day 21): 0.28
Toxicity Death [1, 11]: 4/6^b
Tumor Disapp. [1, 11]: 0/6
Average Body Weight Change ([1]; dEpo B 15 mg/kg i.v. Q2Dx5 from day 9, day 13): 0 g
Average Body Weight Change [1, 12]: -0.6 g
Average Tumor Size (T/C) [1, 12]: 0.86
Average Body Weight Change [1, 13]: -1.1 g
Average Tumor Size (T/C) [1, 13]: 0.56
Average Body Weight Change [1, 14]: -2.6 g
Average Tumor Size (T/C) [1, 14]: 0.50
Average Tumor Size (T/C) ([1]; dEpo B 15 mg/kg i.v. Q2Dx5 from day 9, day 21): 0.44
tumor size treated/control ([1]; dEpoB 35 mg/kg i.p. Q2Dx5, day 21): 0.28
Lowest Average Tumor Size (T/C) ([1]; mouse, in vivo): 0.17 T/C
Therapeutic Effects dEpoB vs Taxol ([1]; mouse, in vivo): <<
Therapeutic effect Rank Order ([1]; mouse, in vivo): Taxol ® ≈ dEpoB
Tumor Disappearance ([1]; mouse, in vivo): 0
Therapeutic effect Rank Order ([1]; mouse, in vivo, iv): Taxol ® > dEpoB
therapeutic outcome ([2]; 6 hr i.v. infusion): full cure
Therapeutic effect Rank Order ([2]; CCRF-CEM/Taxol, i.v. infusion): dEpoB >>> Taxol ®
Lowest Average Tumor Size (T/C) [2, 15]: 0 T/C
Tumor Disappearance [2, 15]: 3/3
Therapeutic Effects dEpoB vs Taxol ([2]; CCRF/Taxol Leukemia, dEpoB 30 mg/kg Q2D x 6 vs Taxol 15 mg/kg Q2D x 6): >>>
Toxicity Death ([3]; 35 mg/kg i.p. Q2Dx5 from day 8): 0/8
Average Body Weight Change [3, 16]: 0.3 g
Average Tumor Size (T/C) [3, 16]: 0.31**
Average Body Weight Change [3, 17]: +0.7 g
Average Tumor Size (T/C) [3, 17]: 0.27***
Average Body Weight Change [3, 18]: +0.6 g
Average Tumor Size (T/C) [3, 18]: 0.30***
Average Body Weight Change [3, 19]: +0.8 g
Average Tumor Size (T/C) [3, 19]: 0.34*
tumor size reduction ([3]; 35 mg/kg, day 17): 66%
therapeutic outcome ([3]; 6 hr i.v. infusion, Q2Dx5): far better than Taxol®, although Q2Dx5 did not achieve a cure
toxicity ([3]; listed as dEpoB): negligible toxicity
toxicity ([3]; listed as desoxyepothilone B): no reduction in body weight or apparent toxicity
Average Body Weight (change), Day 14 ([3]; mouse, in vivo): -2.7 g
Average Body Weight (change), Day 16 ([3]; mouse, in vivo): -4.0 g
Average Body Weight (change), Day 18 ([3]; mouse, in vivo): -4.5 g
Average Body Weight, Day 8 ([3]; mouse, in vivo): 30.3 g
Average Tumor Size (T/C), Day 14 ([3]; mouse, in vivo): 0.16*** T/C
Average Tumor Size (T/C), Day 16 ([3]; mouse, in vivo): 0.15 T/C
Average Tumor Size (T/C), Day 18 ([3]; mouse, in vivo): 0.13*** T/C
Lowest Average Tumor Size (T/C) ([3]; mouse, in vivo): 0.11 T/C
Therapeutic Effects dEpoB vs Taxol ([3]; mouse, in vivo): >>
Toxicity Death ([3]; mouse, in vivo): 0/3
Tumor Disappearance ([3]; mouse, in vivo): 0
Therapeutic effect Rank Order ([3]; mouse, in vivo, ip): dEpoB >> Camptothecin >
Therapeutic effect Rank Order ([3]; mouse, in vivo, iv): dEpoB >> VP-16,
Average Body Weight (change), Day 9 [4, 20]: -1.7 g
Average Body Weight (change), Day 11 [4, 20]: -3.4 g
Average Body Weight (change), Day 13 [4, 20]: -2.7 g
Average Tumor Size (TC), Day 9 [4, 20]: 0.40 TC
Average Tumor Size (TC), Day 11 [4, 20]: 0.19 TC
Average Tumor Size (TC), Day 13 [4, 20]: 0.12 TC
Tumor Disappearance [4, 20]: 0/3
Therapeutic effect Rank Order ([4]; i.v. infusion (order wraps over rows r24-r25)): dEpoB >> VP-16
Therapeutic effect Rank Order ([4]; i.v./i.p. (order wraps over rows r11-r12)): Taxol ® > dEpoB >>
Lowest Average Tumor Size (T/C) [4, 21]: 0.12 T/C
Tumor Disappearance [4, 21]: 0
Therapeutic Effects dEpoB vs Taxol ([4]; PC-3 Prostate, dEpoB 40 mg/kg Q2D x 3 vs Taxol 15 mg/kg Q2D x 3): <<
Average Body Weight (change), Day 9 [4, 22]: -2.2 g
Average Body Weight (change), Day 11 [4, 22]: -5.9 g
Average Body Weight (change), Day 13 [4, 22]: -5.8 g
Average Tumor Size (TC), Day 9 [4, 22]: 0.17 TC
Average Tumor Size (TC), Day 11 [4, 22]: 0.06 TC
Average Tumor Size (TC), Day 13 [4, 22]: 0.06 TC
Tumor Disappearance [4, 22]: 0/3
Average Body Weight (change), Day 9 [4, 23]: -2.1 g
Average Body Weight (change), Day 11 [4, 23]: -3.0 g
Average Body Weight (change), Day 13 [4, 23]: -2.6 g
Average Tumor Size (TC), Day 9 [4, 23]: 0.37 TC
Average Tumor Size (TC), Day 11 [4, 23]: 0.13 TC
Average Tumor Size (TC), Day 13 [4, 23]: 0.03 TC
Tumor Disappearance [4, 23]: 0/3
Average Body Weight, Day 5 [4, 20]: 28.3 g
Average Body Weight, Day 5 [4, 22]: 29.4 g
Average Body Weight, Day 5 [4, 23]: 28.1 g
Lowest Average Tumor Size (T/C) [5, 24]: 0.03 T/C
Tumor Disappearance [5, 24]: 0
Therapeutic Effects dEpoB vs Taxol ([5]; UL3-C Ovary, dEpoB 30 mg/kg Q2D x 5 vs Taxol 15 mg/kg Q2D x 5): ≧
Average Body Weight (change), Day 33 [5, 25]: -2.7 g
Average Body Weight Change, Day 27 [5, 25]: -1.5 g
Average Body Weight Change, Day 29 [5, 25]: -4.0 g
Average Body Weight Change, Day 31 [5, 25]: -3.6 g
Average Tumor Size (T/C), Day 27 [5, 25]: 0.19 T/C
Average Tumor Size (T/C), Day 29 [5, 25]: 0.13 T/C
Average Tumor Size (T/C), Day 31 [5, 25]: 0.03 T/C
Average Tumor Size (T/C), Day 33 [5, 25]: 0.03 T/C
Average Body Weight, Day 19 ([5]; initial weight, dEpoB 30, Taxol 20 mg/kg, i.v. infusions on day 19,21,23,25,27): 30.0 g
Therapeutic effect Rank Order ([6]; CCRF-CEM, i.v. infusion): dEpoB ≈ Taxol ®
Lowest Average Tumor Size (T/C) [6, 26]: 0 T/C
Tumor Disappearance [6, 26]: 2/2
Therapeutic Effects dEpoB vs Taxol ([6]; CCRF/CEM Leukemia, dEpoB 30 mg/kg Q2D x 5 vs Taxol 15 mg/kg Q2D x 5): ≅
GOT [7]: 296 U/L
GPT [7]: 55 (n = 3) U/L
WBC Lymph [7]: 48%
WBC Neutrophils [7]: 48%
WBC Total [7]: 11.8 10^3/mm^3
